# Data taken from patent publication US20080125432A1 (Devgen NV, priority 2004, published 2008).
# Target: T1, hERG potassium channel (Homo sapiens, UniProt Q12809)
# T1 construct: host or cells: HEK 293 T-REx
# Assay: Whole cell patch clamp, HEK 293 T-REx HERG cells
# Type: cell-based
# Settings: percent value, test concentration not given
# From the text: For this experiment HEK 293 T-REx HERG cells (#23) were used. This cell line made by IonGate is characterized by the inducible expression of the hERG gene. The T-REx™ System (Invitrogen, Karlsruhe, Germany) is a tetracycline-regulated mammalian expression system that uses regulatory elements from the E. coli Tn10-encoded tetracycline (Tet) resistance operon. In the absence of Tet the expression is repressed. Tetracycline regulation in the T-REx™ System is based on the binding of tetracycline to the Tet repressor and derepression of the promoter controlling expression of the hERG gene. Addition of Tet to the cell culture media results in expression of the hERG potassium channel.
# To construct the HEK 293 T-REx HERG cell line, the hERG gene was ligated into the inducible expression vector pcDNA4/TO (→pc4TO-HERG) and transfected into HEK 293 T-REx cells (this cell line stably expresses the Tet repressor and was purchased at Invitrogen). Stable cell clones were isolated after selection with Blasticidin (5 μg/ml) and Zeocin™ (300 μg/ml). The clones were electrophysiological characterized after induction with 1 μg/ml Tet.
# Experiments were performed using the patch clamp set-up. Technical equipment needed for manipulation of the cells was placed on a vibration-isolated table and shielded with a Faraday cage to minimize electrical noise. The amplifier and control system were placed in a rack outside the Faraday cage. The system consisted of an EPC9 or EPC10 patch clamp amplifier (HEKA, Lambrecht, Germany), and the perfusion system DADVC8 (ALA Scientific, New York, USA) controlled by the Pulse software package (HEKA, Lambrecht, Germany) installed on a personal computer.
# The cells used for this experiment were kept in continuous culture under standard conditions (37° C., air supplemented with 5% CO2). The HEK 293 T-REx HERG cells were kept in minimal essential medium (MEM) supplemented with 100 U/ml Penicillin, 100 μg/ml Streptomycin, 10% fetal calf serum (FCS), 1% non-essential amino acids (NEAA), 2.5 μg/ml amphotericin, 300 μg/ml Zeocin™ and 5 μg/ml Blasticidin. Cells were passed every 3-4 days after detachment using a Trypsin solution. The quality of the cultured cells was guaranteed by vitality and contamination tests. The culture of the cells was performed as described in protocol D described above.
# At least 18 hours prior to electrophysiological experiments the cells were detached by application of iced PBS (phosphate buffered saline) or Trypsin and replated on cover slips. 1 μg/ml Tet was added to the cells to induce hERG expression.
# Activity of the cardiac hERG channel was investigated using the patch clamp technique in its whole cell mode. This means that the current needed for clamping the whole cell expressing the K^+-channel protein to a specific potential was measured. The pipettes used for patch clamping were made of borosilicate glass. Measurements were performed at room temperature (20-25° C.). In each experiment (i.e. each cell) only one concentration of the compound was investigated no cumulative dosages were performed. Each cell acted as its own control. […]
# After the whole cell configuration was established a series of pulses was applied to check for hERG expression and to optimize amplifier settings. However, only the following measurements were used for data analysis: 15 test pulses (FIG. 4a and Table 6a) were applied at 0.1 Hz (series 1) under constant superfusion with bath solution. The protocol was initiated by a leak test at −40 mV (50 ms). […] The maximum hERG tail current amplitude was measured at −40 mV (tail current test, 1.5 sec.). Only cells generating tail current amplitudes between 300 pA and 10 nA were used for the experimental procedure.
# After successful characterization of the current another 10 test pulses were applied at 0.1 Hz while the cell was superfused with bath solution (series 2). […]
# T1 sequence (Q12809 whole entry): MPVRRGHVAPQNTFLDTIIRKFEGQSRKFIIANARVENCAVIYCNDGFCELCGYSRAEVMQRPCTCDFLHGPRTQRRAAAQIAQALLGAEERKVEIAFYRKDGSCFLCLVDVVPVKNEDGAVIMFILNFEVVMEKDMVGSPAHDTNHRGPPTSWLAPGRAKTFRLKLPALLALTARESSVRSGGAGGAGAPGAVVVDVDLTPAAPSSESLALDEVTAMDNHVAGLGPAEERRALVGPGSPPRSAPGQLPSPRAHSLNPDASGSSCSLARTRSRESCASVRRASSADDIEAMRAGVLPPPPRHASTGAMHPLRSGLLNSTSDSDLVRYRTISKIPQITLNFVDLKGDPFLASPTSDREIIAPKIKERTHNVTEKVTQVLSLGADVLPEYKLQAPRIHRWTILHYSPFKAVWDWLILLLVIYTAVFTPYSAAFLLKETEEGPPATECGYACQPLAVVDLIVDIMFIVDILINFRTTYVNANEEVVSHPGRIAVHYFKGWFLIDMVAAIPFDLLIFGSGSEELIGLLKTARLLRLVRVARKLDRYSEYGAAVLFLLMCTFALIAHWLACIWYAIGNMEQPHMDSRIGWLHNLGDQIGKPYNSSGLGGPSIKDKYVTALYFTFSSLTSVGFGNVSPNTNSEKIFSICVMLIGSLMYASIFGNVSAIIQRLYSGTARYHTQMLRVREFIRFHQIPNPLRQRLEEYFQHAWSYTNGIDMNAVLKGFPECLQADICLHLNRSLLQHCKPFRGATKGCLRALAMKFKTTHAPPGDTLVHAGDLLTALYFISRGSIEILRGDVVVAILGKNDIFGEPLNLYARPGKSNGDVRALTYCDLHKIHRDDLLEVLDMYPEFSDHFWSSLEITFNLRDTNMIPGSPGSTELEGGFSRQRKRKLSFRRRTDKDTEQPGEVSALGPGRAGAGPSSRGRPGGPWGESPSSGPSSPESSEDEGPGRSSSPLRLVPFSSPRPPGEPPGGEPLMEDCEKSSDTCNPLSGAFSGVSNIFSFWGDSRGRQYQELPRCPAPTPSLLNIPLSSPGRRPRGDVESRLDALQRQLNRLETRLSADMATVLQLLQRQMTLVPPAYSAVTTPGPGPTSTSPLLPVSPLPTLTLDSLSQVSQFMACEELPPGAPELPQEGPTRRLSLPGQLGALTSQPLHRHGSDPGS
compound,measurement,value
"Cc1nc(NC(=O)c2ccc(C(C)(C)C)cc2)sc1C(=O)N[C@H]1CCC[C@@H]1OCc1ccccc1 [Compound 180, 2-(4-tert-butyl-benzoylamino)-4-methyl-thiazole-5-carboxylic acid ((1S,2S)-2-benzyloxycyclopent-1-yl) amide]",hERG,64%
